Assay results as given in article PMC2409906, “Establishment and characterisation of a human carcinoma cell line with acquired resistance to Aplidin™” (British Journal of Cancer, 2004).
Each block holds one compound with its values, some of them ahead of it. Starred links: 1 amine or outer side, 2 acyl side, 3 side chain; linkers in the order of their positions; H or OH if unused. Positions of bridges follow the written chain, without caps; N, C: chain ends. Non-standard residues stand in square brackets, D forms with d. Residues, ends and D or L forms follow the SMILES beside them. *: point of attachment. X1 = CC[C@H](C)[C@@H](N[*:1])[C@@H](O)CC(=O)O[C@H](C(=O)[C@H](C)C(=O)[*:2])C(C)C; X3 = CC[C@H](C)[C@@H](N[*:1])[C@@H](O)CC(=O)[*:2]; X2 = CN(C)c1ccc2c(CC(=O)*)cc(=O)oc2c1; NMeY = CN[C@@H](Cc1ccc(O)cc1)C(=O)O; dNMeL = CN[C@H](CC(C)C)C(=O)O; Hiv = CC(C)[C@H](O)C(=O)O; Pyruvoyl = CC(=O)C(=O)*; Lac = C[C@H](O)C(=O)O

Experiments:
human leukaemia samples = details: ref Bresters et al, 2003; cited from earlier work
HeLa-APL cells = test: Sulphorhodamine B (SRB) growth inhibition assay, resistant subline; assay type: cell-based, human; details: HeLa-APL vs HeLa wt; for crossresistance of HeLa-APL cells (IC50 values, SRB cell growth assay): 48 or 72 h exposure; for crossresistance of HeLa-APL cells: data not shown
Description: HeLa, HeLa-APL, LoVo and LoVo-dox ([Grandi et al, 1986]) cells were maintained in DMEM supplemented with 10% FCS and 100 U ml^−1 penicillin and streptomycin at 37°C and 5% CO2.
Cells were washed twice with PBS, fixed for 15 min in 1% glutaraldehyde solution, rinsed twice in PBS, and stained in 0.4% SRB solution for 30 min at room temperature. Cells were then rinsed several times with 1% acetic acid solution and air-dried. Sulphorhodamine B was then extracted in 10 mM trizma base solution and the absorbance measured at 490 nm. Cell survival was expressed as percentage of control cell growth.

[1] = system: HeLa wt and HeLa-APL cells; test: Detection of drug in cell extracts by Maldi-TOF mass spectrometry; assay type: in vitro ADME, human; details: 450 nM, 1 h exposure, methanol cell extracts, Maldi-TOF MS, parental and HeLa-APL cells
Description: To detect minute amounts of APL present in the cellular extracts, Matrix-Assisted Laser Desorption/Ionisation-Time Of Flight Mass Spectrometry (Maldi-TOF MS) technique was used. Cell cultures were treated with vehicle or APL at the concentrations and times indicated in the text, washed with PBS and harvested by centrifugation at 6000 r.p.m. for 5 min at 4°C. Cell pellets were washed with PBS and extracted with cold methanol. Equal amounts of extract were applied on a template, air dried, mixed with 0.2–0.5 μl matrix (10 mg ml^−1 dihydroxy benzoic acid in water :acetonitrile mix, 1% trifluoroacetic acid) and air dried. Analyses were performed on a Voyager DE Pro (PerSeptive Biosystems, Framingham, MS, USA). Mass spectra were averaged over 100–200 laser shots from a nitrogen laser (337 nm) operating in a linear mode. Ionised molecules were accelerated with a voltage of 20 kV. The following peptides were used as external markers: intact human insulin, human insulin alpha-chain, human insulin beta-chain and cytochrome c.

[2] = system: HeLa wt and HeLa-APL cells; test: Intracellular accumulation of fluorescent APL-dmac (fluorescence microscopy); assay type: in vitro ADME, human
Description: (§1) Cells were stained with APL-dmac, Calcein-AM or Hoechst-33342 by direct addition of the fluorescent compounds in the cell culture dishes, incubated at 37°C for the times indicated, washed in PBS and examined by fluorescence microscopy.

[3] = parameters: method as in Vervoort and Fenical, 2000; Joullie et al, 2003; details: ref Vervoort and Fenical, 2000; Joullie et al, 2003; cited from earlier work
Pgp170 in LoVo-Dox cells = biological target: T1, Pgp170 in LoVo-Dox cells (Homo sapiens, UniProt P08183); test: Calcein-AM accumulation in LoVo-Dox cells (fluorescence microscopy); assay type: cell-based; details: 50 μM verapamil, Calcein-AM loaded for 1 h
T1 construct: endogenous in cells; host or cells: LoVo-Dox (doxorubicin-selected LoVo colorectal carcinoma cells)
Description: as §1

T1 sequence (P08183 whole entry): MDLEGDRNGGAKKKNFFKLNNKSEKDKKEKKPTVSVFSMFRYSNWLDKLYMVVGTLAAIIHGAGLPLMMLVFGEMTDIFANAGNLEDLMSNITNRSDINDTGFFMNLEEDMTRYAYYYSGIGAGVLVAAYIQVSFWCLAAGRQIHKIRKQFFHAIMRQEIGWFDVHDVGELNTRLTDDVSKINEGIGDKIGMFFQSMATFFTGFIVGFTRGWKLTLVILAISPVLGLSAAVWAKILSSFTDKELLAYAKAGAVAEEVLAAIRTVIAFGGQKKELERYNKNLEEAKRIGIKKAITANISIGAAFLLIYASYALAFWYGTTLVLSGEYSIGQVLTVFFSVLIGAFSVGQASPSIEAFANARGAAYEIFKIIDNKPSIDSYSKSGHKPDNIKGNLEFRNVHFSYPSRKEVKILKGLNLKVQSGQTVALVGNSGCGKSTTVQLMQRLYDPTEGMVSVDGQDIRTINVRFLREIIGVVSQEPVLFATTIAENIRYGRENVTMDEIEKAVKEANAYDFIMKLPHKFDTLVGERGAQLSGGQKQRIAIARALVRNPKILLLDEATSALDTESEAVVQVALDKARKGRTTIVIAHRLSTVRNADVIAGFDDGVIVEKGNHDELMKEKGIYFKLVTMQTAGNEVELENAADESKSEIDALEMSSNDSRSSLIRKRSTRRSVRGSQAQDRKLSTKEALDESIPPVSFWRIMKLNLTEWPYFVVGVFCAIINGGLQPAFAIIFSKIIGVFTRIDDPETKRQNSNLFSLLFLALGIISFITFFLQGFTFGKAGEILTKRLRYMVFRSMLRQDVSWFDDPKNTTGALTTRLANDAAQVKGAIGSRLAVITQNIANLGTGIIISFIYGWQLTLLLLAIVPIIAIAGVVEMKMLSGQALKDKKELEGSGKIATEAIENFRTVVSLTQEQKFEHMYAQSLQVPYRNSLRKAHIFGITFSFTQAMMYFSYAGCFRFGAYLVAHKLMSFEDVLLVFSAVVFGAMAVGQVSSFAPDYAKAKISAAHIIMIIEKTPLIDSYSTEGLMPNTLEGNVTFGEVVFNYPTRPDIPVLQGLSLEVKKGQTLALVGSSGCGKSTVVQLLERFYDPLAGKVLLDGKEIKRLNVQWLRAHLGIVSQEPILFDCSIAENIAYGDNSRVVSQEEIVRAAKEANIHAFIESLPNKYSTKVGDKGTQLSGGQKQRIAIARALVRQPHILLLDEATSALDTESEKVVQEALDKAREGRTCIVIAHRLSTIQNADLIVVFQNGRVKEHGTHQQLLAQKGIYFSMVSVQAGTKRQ

Compound: Nc1ccn([C@@H]2O[C@H](CO)[C@@H](O)C2(F)F)c(=O)n1 [2′,2′-difluorodeoxycytidine]
- crossresistance with APL (human leukaemia samples): trend for crossresistance

- crossresistance of HeLa-APL cells (IC50 values, SRB cell growth assay) (HeLa-APL cells; triplicate plates): no significant crossresistance
Compound: Nc1ncn([C@@H]2O[C@H](CO)[C@@H](O)[C@H]2O)c(=O)n1 [5-azacytidine]

- crossresistance of HeLa-APL cells (IC50 values, SRB cell growth assay) (HeLa-APL cells; triplicate plates): no significant crossresistance
Compound: Sc1ncnc2nc[nH]c12 [6-mercaptopurine]

- crossresistance of HeLa-APL cells (IC50 values, SRB cell growth assay) (HeLa-APL cells; triplicate plates): no significant crossresistance
Compound: Nc1nc2nc[nH]c2c(=S)[nH]1 [6-thioguanine]

Compound: CC[C@H](C)[C@H]1NC(=O)[C@@H](NC(=O)[C@@H](CC(C)C)N(C)C(=O)[C@@H]2CCCN2C(=O)C(C)=O)[C@@H](C)OC(=O)[C@H](Cc2ccc(OC)cc2)N(C)C(=O)[C@@H]2CCCN2C(=O)[C@H](CC(C)C)NC(=O)[C@@H](C)C(=O)[C@H](C(C)C)OC(=O)C[C@@H]1O [APL, Aplidin™] (Pyruvoyl-P[dNMeL]T[X1]LP[NMeY](Me); ester 3-C)
- presence of the intact drug in cells [1]: confirmed

Compound: CC[C@H](C)[C@H]1NC(=O)[C@@H](NC(=O)[C@@H](CC(C)C)N(C)C(=O)Cc2cc(=O)oc3cc(N(C)C)ccc23)[C@@H](C)OC(=O)[C@H](Cc2ccc(OC)cc2)N(C)C(=O)[C@@H]2CCCN2C(=O)[C@H](CC(C)C)NC(=O)[C@@H](C)C(=O)[C@H](C(C)C)OC(=O)C[C@@H]1O [APL-dmac, aplidin-dimethylaminocoumarin] (X2-[dNMeL]T[X1]LP[NMeY](Me); ester 2-C)
- presence of the intact drug in cells [1]: detected in both cell lines
- internalisation and accumulation in the cytoplasmic compartment ([2]; 450 nM APL-dmac, 1 h, 37°C, HeLa wt and HeLa-APL): consistent in both cell systems
- internalisation after long-term treatment ([2]; not shown): remained internalised

Compound: COc1cc(NS(C)(=O)=O)ccc1Nc1c2ccccc2nc2ccccc12 [amsacrine]
- crossresistance of HeLa-APL cells (HeLa-APL cells): no significant crossresistance

Compound: CC[C@@]1(O)C(=O)OCc2c1cc1n(c2=O)Cc2cc3ccccc3nc2-1 [camptothecin]
- crossresistance of HeLa-APL cells (IC50 values, SRB cell growth assay) (HeLa-APL cells; triplicate plates): no significant crossresistance

Compound: O=C(O)CCCc1ccc(N(CCCl)CCCl)cc1 [chlorambucil]
- crossresistance of HeLa-APL cells (HeLa-APL cells): no significant crossresistance

Compound: N.N.[Cl][Pt][Cl] [cisplatin]
- crossresistance of HeLa-APL cells (IC50 values, SRB cell growth assay) (HeLa-APL cells; triplicate plates): no significant crossresistance

- crossresistance of HeLa-APL cells (IC50 values, SRB cell growth assay) (HeLa-APL cells; triplicate plates): no significant crossresistance
Compound: COc1cccc2c1C(=O)c1c(O)c3c(c(O)c1C2=O)C[C@@](O)(C(=O)CO)C[C@@H]3O[C@H]1C[C@H](N)[C@H](O)[C@H](C)O1 [doxorubicin]

- crossresistance of HeLa-APL cells (IC50 values, SRB cell growth assay) (HeLa-APL cells; triplicate plates): no significant crossresistance
Compound: COc1cc([C@@H]2c3cc4c(cc3[C@@H](O[C@@H]3O[C@@H]5CO[C@@H](C)O[C@H]5[C@H](O)[C@H]3O)[C@H]3COC(=O)[C@H]23)OCO4)cc(OC)c1O [etoposide]

Compound: Nc1nc(F)nc2c1ncn2[C@@H]1O[C@H](CO)[C@@H](O)[C@@H]1O [fludarabine]
- crossresistance of HeLa-APL cells (IC50 values, SRB cell growth assay) (HeLa-APL cells; triplicate plates): no significant crossresistance

Compound: N[C@@H](Cc1ccc(N(CCCl)CCCl)cc1)C(=O)O [melphalan]
- crossresistance of HeLa-APL cells (HeLa-APL cells): no significant crossresistance

Compound: O=C1c2c(O)ccc(O)c2C(=O)c2c(NCCNCCO)ccc(NCCNCCO)c21 [mitoxantrone]
- crossresistance of HeLa-APL cells (HeLa-APL cells): no significant crossresistance

- crossresistance of HeLa-APL cells (IC50 values, SRB cell growth assay) (HeLa-APL cells; triplicate plates): no significant crossresistance
Compound: CC(=O)O[C@H]1C(=O)[C@@]2(C)[C@H]([C@H](OC(=O)c3ccccc3)[C@]3(O)C[C@H](OC(=O)[C@H](O)[C@@H](NC(=O)c4ccccc4)c4ccccc4)C(C)=C1C3(C)C)[C@]1(OC(C)=O)CO[C@@H]1C[C@@H]2O [paclitaxel]

Compound: CC[C@H](C)[C@H]1NC(=O)[C@@H](NC(=O)[C@@H](CC(C)C)N(C)C(=O)[C@@H]2CCCN2C(=O)[C@H](C)O)[C@@H](C)OC(=O)[C@H](Cc2ccc(OC)cc2)N(C)C(=O)[C@@H]2CCCN2C(=O)[C@H](CC(C)C)NC(=O)[C@H](C(C)C)OC(=O)C[C@@H]1O [tamandarin A] (H-[Lac]P[dNMeL]T[X3][Hiv]LP[NMeY](Me); ester 4-C)
- cytotoxic activity relative to APL [3]: comparable to that of APL

Compound: COc1ccc(CCN(C)CCCC(C#N)(c2ccc(OC)c(OC)c2)C(C)C)cc1OC (centres unmarked) [verapamil]
- effect of pre-incubation on calcein-AM accumulation (Pgp170 in LoVo-Dox cells): accumulation of calcein-AM in LoVo-Dox-resistant cells to an extent similar to that observed in sensitive LoVo cells

- crossresistance of HeLa-APL cells (IC50 values, SRB cell growth assay) (HeLa-APL cells; triplicate plates): no significant crossresistance
Compound: CC[C@]1(O)C[C@@H]2CN(CCc3c([nH]c4ccccc34)[C@@](C(=O)OC)(c3cc4c(cc3OC)N(C)[C@H]3[C@@](O)(C(=O)OC)[C@H](OC(C)=O)[C@]5(CC)C=CCN6CC[C@]43[C@@H]65)C2)C1 [vinblastine]

Compound: didemnin B
- cytotoxic activity relative to APL [3]: comparable to that of APL
- crossresistance of HeLa-APL cells to APL structural analogues (HeLa-APL cells; 48 h exposure, SRB assay, triplicate plates): comparable crossresistance
